We go through eight substances from publication PMC6349357, “Computational and experimental analysis of bioactive peptide linear motifs in the integrin adhesome” (PLoS ONE, 2019).

For one assay, the system named is TRAP-activated platelets. The assay can be described thus: Inhibition of TRAP-induced platelet aggregation after pre-incubation with peptide. The class given is cell-based, human (healthy volunteers). As to conditions: for Aggregation after TRAP, peptide alone 1x (A 1x / B 1x) / Aggregation after TRAP, peptide alone 2x (A 2x / B 2x): TRAP 2 μM after 6 minutes pre-incubation, mean n = 3; for Aggregation after TRAP, peptide alone 1x (A 1x / B 1x): 4 μM pal-peptides, 10 μM tat-peptides; for Aggregation after TRAP, peptide alone 2x (A 2x / B 2x): double concentration of 4 μM (pal) / 10 μM (tat); for Aggregation after TRAP activation, donor h: replicate donor h; for Aggregation after TRAP activation, donor h / Aggregation after TRAP activation, donor i / Aggregation after TRAP activation, donor j: pal 20 μM, tat 50 μM; for Aggregation after TRAP activation, donor i: replicate donor i; for Aggregation after TRAP activation, donor j: replicate donor j; for Summary of effects of SDC4-derived palmitylated peptides and scrambled controls, 20μM: S2 Table B / S2 Fig, activation of resting platelets and inhibition of aggregation induced by 4 μM TRAP, in words; for Inhibition, donor 20_08_13: replicate 20_08_13; for Inhibition, donor 14_06_13: replicate 14_06_13; for Inhibition, donor 18_06_13: replicate 18_06_13; for Inhibition, donor 20_06_13: replicate 20_06_13. A digest of the protocol: (§1)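 Washed human platelets (from ACD blood, PGE1-treated) were used at 3x10^5/μl in buffer A pH 7.4 with 1.8 mM CaCl2. Light-transmission aggregometry ran at 37°C with stirring at 1100 rpm. Peptide or buffer was added at 2 min, TRAP 6 min later, and aggregation was recorded for a further 7 min.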

Another assay deals with resting platelets. The assay can be described thus: Platelet aggregation induced by peptide in resting washed platelets (activation). The class given is cell-based, human (healthy volunteers). The settings on record: for Activation, 5μM / Activation, 20μM: S3 Table, n=3; for Activation, 5μM: peptide 5 μM; for Activation, 5μM / Activation, 20μM / Activation / Activation, donor 20 08 13 / Activation, donor 14 06 13: unit assumed; for Activation, 20μM: peptide 20 μM; for Activation: platelet aggregation in resting platelets after 6 minutes incubation with peptide, pal-peptides 20 μM, tat-peptides 50 μM, optical density, aggregometer, mean, n>=3; for Aggregation before TRAP activation, donor h: replicate donor h; for Aggregation before TRAP activation, donor h / Aggregation before TRAP activation, donor i / Aggregation before TRAP activation, donor j: pal 20 μM, tat 50 μM; for Aggregation before TRAP activation, donor i: replicate donor i; for Aggregation before TRAP activation, donor j: replicate donor j; for Activation, donor 20 08 13: replicate 20_08_13; for Activation, donor 20 08 13 / Activation, donor 22_08_13_DONOR1 / Activation, donor 22_08_13_DONOR2 / Activation, donor 14 06 13 / Activation, donor 18_06_13 / Activation, donor 20_06_13: SDC4 peptides and controls, 20 μM; for Activation, donor 22_08_13_DONOR1: replicate 22_08_13_DONOR1; for Activation, donor 22_08_13_DONOR2: replicate 22_08_13_DONOR2; for Activation, donor 14 06 13: replicate 14_06_13; for Activation, donor 18_06_13: replicate 18_06_13; for Activation, donor 18_06_13 / Activation, donor 20_06_13: in % (unit assumed); for Activation, donor 20_06_13: replicate 20_06_13. The procedure, abridged: as §1

Setting [1] is: S3 Table, peptide 5 μM, aggregation after TRAP, n=3.
The mark [2] stands for this setting: S3 Table, peptide 20 μM, aggregation after TRAP, n=3.
The mark [3] stands for this setting: platelet aggregation induced by 4 μM TRAP in platelets pre-incubated with peptide (low value = inhibition), pal-peptides 20 μM, tat-peptides 50 μM, mean, n>=3.
[4] abbreviates: replicate 22_08_13_DONOR1, peptide 20 μM, TRAP 4 μM.
The mark [5] stands for this setting: replicate 22_08_13_DONOR2, peptide 20 μM, TRAP 4 μM.

With “pal-FAKFEEERAR-(NH2) [pal-ITGB3_middle1, N-terminally palmitylated ITGB3 peptide …]”, the “Platelet aggregation remaining after TRAP (low = inhibition)” value with TRAP-activated platelets (setting [1]) worked out at 73. For the same substance, the “Platelet aggregation remaining after TRAP (low = inhibition)” value with TRAP-activated platelets (setting [2]) came to 68. Besides, in the assay on TRAP-activated platelets, the “Aggregation after TRAP, peptide alone 1x (A 1x / B 1x)” value is given as 67.67 and the “Aggregation after TRAP, peptide alone 2x (A 2x / B 2x)” value stood at 43.67. Besides, the “Platelet aggregation remaining after TRAP (low = inhibition)” value in the assay on TRAP-activated platelets (setting [3]) was determined as 45. For the same substance, in the assay on TRAP-activated platelets (TRAP 4 μM), the “Aggregation after TRAP activation, donor h” value came out at 64; the “Aggregation after TRAP activation, donor i” value is reported as 60; the “Aggregation after TRAP activation, donor j” value amounted to 12. For the same substance, in the assay with resting platelets, the Activation, 5μM was 2%; the Activation, 20μM was found to be 2%; the Activation was 0%; the “Aggregation before TRAP activation, donor h” value is listed as 1. In the assay on resting platelets, the “Aggregation before TRAP activation, donor i” value was found to be 1 and the “Aggregation before TRAP activation, donor j” value was found to be 0.
For “IGLPKKKYK [pal-SDC4_middle Control 2, scrambled control of pal-SDC4_middle, reference compound]”, the “Summary of effects of SDC4-derived palmitylated peptides and scrambled controls, 20μM” value in the assay on TRAP-activated platelets was “Inhibitor and mild activator”. The “Inhibition, donor 20_08_13” value in the assay with TRAP-activated platelets (peptide 20 μM, TRAP 4 μM) is 40. In addition, the “Platelet aggregation remaining after TRAP (low = inhibition)” value in the assay with TRAP-activated platelets (setting [4]) was 19. For the same substance, the “Platelet aggregation remaining after TRAP (low = inhibition)” value in the assay with TRAP-activated platelets (setting [5]) was found to be 46. Further, in the assay with resting platelets, the Activation, donor 20 08 13 came to 12%; the “Activation, donor 22_08_13_DONOR1” value worked out at 17; the “Activation, donor 22_08_13_DONOR2” value was determined as 12.
Turning to “pal-KVGFFKR-FAKFEEERAR [B15p ITGA2b-JM U ITGB3-middle1, palmitylated chimeric peptide]”, the “Platelet aggregation remaining after TRAP (low = inhibition)” value in the assay on TRAP-activated platelets (setting [1]) is on record as 72. The “Platelet aggregation remaining after TRAP (low = inhibition)” value with TRAP-activated platelets (setting [2]) is reported as 71. In the assay with resting platelets, this substance yielded an Activation, 5μM of 2% and an Activation, 20μM of 4%.
For “Pal-LGKKPIYKK-APTNEFYA [pal-SDC4-middle U SDC4-tail, palmitylated chimeric peptide of SDC4 middle and tail regions]”, the “Aggregation (inhibition effects of syndecan-derived peptides)” value in the assay with TRAP-activated platelets (S2 Table A, peptide 20 μM, TRAP 4 μM, mean, n=6) is listed as 5. In addition, in the assay with TRAP-activated platelets (setting [1]), the “Platelet aggregation remaining after TRAP (low = inhibition)” value is given as 63. Further, the “Platelet aggregation remaining after TRAP (low = inhibition)” value with TRAP-activated platelets (setting [2]) turned out to be 5. In the assay on TRAP-activated platelets (peptide 20 μM, TRAP 4 μM), the “Inhibition, donor 14_06_13” value amounted to 5; the “Inhibition, donor 18_06_13” value is 5; the “Inhibition, donor 20_06_13” value was 7; the “Inhibition, donor 20_08_13” value turned out to be 6. In addition, the “Platelet aggregation remaining after TRAP (low = inhibition)” value with TRAP-activated platelets (setting [4]) is 2. Also, in the assay on TRAP-activated platelets (setting [5]), the “Platelet aggregation remaining after TRAP (low = inhibition)” value is 6. Moreover, in the assay on resting platelets, the Activation, 5μM was 3%; the Activation, 20μM was determined as 2%; the Activation, donor 14 06 13 came out at 3%; the “Activation, donor 18_06_13” value was 3. In addition, in the assay with resting platelets, the “Activation, donor 20_06_13” value is -2; the Activation, donor 20 08 13 turned out to be 4%; the “Activation, donor 22_08_13_DONOR1” value worked out at 1; the “Activation, donor 22_08_13_DONOR2” value turned out to be 4.
Take “tat-SVSETDDpYAEIIDE-(NH2) [tat-FAK_2, tat peptide from PTK2/FAK1, phosphorylated tyrosine]”: the “Platelet aggregation remaining after TRAP (low = inhibition)” value with TRAP-activated platelets (setting [3]) came to 71. Besides, in the assay on TRAP-activated platelets (TRAP 4 μM), the “Aggregation after TRAP activation, donor h” value worked out at 77; the “Aggregation after TRAP activation, donor i” value is recorded as 61; the “Aggregation after TRAP activation, donor j” value amounted to 76. In the assay with resting platelets, the Activation is 3%; the “Aggregation before TRAP activation, donor h” value was determined as 4; the “Aggregation before TRAP activation, donor i” value was 3; the “Aggregation before TRAP activation, donor j” value was determined as 4.
For pal-WEQLLTTIARTINEVENQI [B3p ACTN1-VBS], in the assay with TRAP-activated platelets (setting [1]), the “Platelet aggregation remaining after TRAP (low = inhibition)” value came to 76. The “Platelet aggregation remaining after TRAP (low = inhibition)” value in the assay on TRAP-activated platelets (setting [2]) was found to be 73. Moreover, in the assay on resting platelets, the Activation, 5μM was 2% and the Activation, 20μM came out at 1%.
For “Pal-KKAPTNEFYA [Pal-KK-SDC4-tail, palmitylated, slightly extended SDC4 tail peptide …]”, in the assay on TRAP-activated platelets, the “Summary of effects of SDC4-derived palmitylated peptides and scrambled controls, 20μM” value is given as “Inhibitor”; the “Aggregation after TRAP, peptide alone 1x (A 1x / B 1x)” value was 64.67; the “Aggregation after TRAP, peptide alone 2x (A 2x / B 2x)” value turned out to be 3. For the same substance, the “Platelet aggregation remaining after TRAP (low = inhibition)” value in the assay with TRAP-activated platelets (setting [1]) is 63. Moreover, in the assay on TRAP-activated platelets (setting [2]), the “Platelet aggregation remaining after TRAP (low = inhibition)” value is reported as 36. In the assay on TRAP-activated platelets (peptide 20 μM, TRAP 4 μM), the “Inhibition, donor 14_06_13” value came to 65; the “Inhibition, donor 18_06_13” value worked out at 64; the “Inhibition, donor 20_06_13” value came to 71; the “Inhibition, donor 20_08_13” value came to 4. The “Platelet aggregation remaining after TRAP (low = inhibition)” value with TRAP-activated platelets (setting [4]) was 2. Moreover, the “Platelet aggregation remaining after TRAP (low = inhibition)” value in the assay with TRAP-activated platelets (setting [5]) was 12. Also, in the assay with resting platelets, the Activation, 5μM was 2%; the Activation, 20μM came to 1%; the Activation, donor 14 06 13 is 2%; the “Activation, donor 18_06_13” value was -1. In the assay with resting platelets, the “Activation, donor 20_06_13” value is recorded as 2; the Activation, donor 20 08 13 was 3%; the “Activation, donor 22_08_13_DONOR1” value is given as 1; the “Activation, donor 22_08_13_DONOR2” value is 1.
Turning to “pal-KVGFFKR-LGKKPIYKK [B18p ITGA2b-JM U SDC4-middle, palmitylated chimeric peptide]”, the “Platelet aggregation remaining after TRAP (low = inhibition)” value with TRAP-activated platelets (setting [1]) was found to be 65. In addition, the “Platelet aggregation remaining after TRAP (low = inhibition)” value in the assay on TRAP-activated platelets (setting [2]) was determined as 27. In the assay with resting platelets, this substance returned an Activation, 5μM of 61% and an Activation, 20μM of 13%.
